Reference: US8071605B2, “Piperidine compounds for use in the treatment of bacterial infections” (AstraZeneca AB, priority 2008, dated 2011)

biological target: S. aureus GyrB ATPase (Staphylococcus aureus, UniProt P0A0K8); assay: S. aureus GyrB ATPase inhibition (ammonium molybdate/malachite green phosphate detection); type: biochemical; settings: compound concentration of 1 μM (unless otherwise noted)
Experimental: E. coli GyrB ATPase Inhibition Activity: Compounds can be tested for inhibition of E. coli GyrB ATPase activity using an ammonium molybdate/malachite green-based phosphate detection assay (Lanzetta, P. A., L. J. Alvarez, P. S. Reinach, and O. A. Candia, 1979, 100: 95-97). Assays can be performed in multiwell plates in 30 μl reactions containing: 50 mM Hepes buffer pH 7.5, 75 mM ammonium acetate, 8.0 mM magnesium chloride, 0.5 mM ethylenediaminetetraacetic acid, 5% glycerol, 1 mM 1,4-Dithio-DL-threitol, 200 nM bovine serum albumin, 1.6 μg/ml sheared salmon sperm DNA, 400 pM E. coli GyrA, 400 pM E. coli GyrB, 250 μM ATP, and compound in dimethylsulfoxide. Reactions can be quenched with 30 μl of ammonium molybdate/malachite green detection reagent containing 1.2 mM malachite green hydrochloride, 8.5 mM ammonium molybdate tetrahydrate, and 1 M hydrochloric acid. Plates can be read in an absorbance plate reader at 650 nm and percent inhibition values are calculated using dimethylsulfoxide (2%)-containing reactions as 0% inhibition and EDTA-containing (2.4 μM) reactions as 100% inhibition controls. An IC50 measurement of compound potency for each compound can be determined from reactions performed in the presence of 10 different compound concentrations. E. coli Topoisomerase IV ATPase Inhibition Activity: Compounds can be tested for inhibition of E. coli topoisomerase IV ATPase activity as described above for E. coli GyrB except the 30 μl reactions contained the following: 20 mM TRIS buffer pH 8, 50 mM ammonium acetate, 8 mM magnesium chloride, 5% glycerol, 5 mM 1,4-Dithio-DL-threitol, 0.005% Brij-35, 5 μg/ml sheared salmon sperm DNA, 500 pM E. coli ParC, 500 pM E. coli ParE, 160 μM ATP, and compound in dimethylsulfoxide. An IC50 measurement of compound potency for each compound can be determined from reactions performed in the presence of 10 different compound concentrations. S. aureus GyrB ATPase Inhibition Activity: Compounds may be tested for inhibition of S. aureus GyrB ATPase activity using an ammonium molybdate/malachite green-based phosphate detection assay (Lanzetta, P. A., L. J. Alvarez, P. S. Reinach, and O. A. Candia, 1979, 100: 95-97). Assays can be performed in multiwell plates in 30 μl reactions containing: 50 mM Hepes buffer pH 7.5, 75 mM ammonium acetate, 8.0 mM magnesium chloride, 0.5 mM ethylenediaminetetraacetic acid, 5% glycerol, 1.0 mM 1,4-Dithio-DL-threitol, 200 nM bovine serum albumin, 1.0 μg/ml sheared salmon sperm DNA, 250 pM E. coli GyrA, 250 pM S. aureus GyrB, 250 μM ATP, and compound in dimethylsulfoxide. Reactions can be quenched with 30 μl of ammonium molybdate/malachite green detection reagent containing 1.2 mM malachite green hydrochloride, 8.5 mM ammonium molybdate tetrahydrate, and 1 M hydrochloric acid. Plates can be read in an absorbance plate reader at 650 nm and percent inhibition values can be calculated using dimethylsulfoxide (2%)-containing reactions as 0% inhibition and EDTA-containing (2.4 μM) reactions as 100% inhibition controls. An IC50 measurement of compound potency for each compound can be determined from reactions performed in the presence of 10 different compound concentrations.
Compounds of the invention were tested in an assay substantially similar to the assay described above for measuring the inhibition of S. aureus GyrB ATPase. Percent inhibition of S. aureus GyrB ATPase at a compound concentration of 1 μM (unless otherwise noted) is disclosed in the following table: […]

S. aureus GyrB ATPase, sequence (P0AES4 whole entry): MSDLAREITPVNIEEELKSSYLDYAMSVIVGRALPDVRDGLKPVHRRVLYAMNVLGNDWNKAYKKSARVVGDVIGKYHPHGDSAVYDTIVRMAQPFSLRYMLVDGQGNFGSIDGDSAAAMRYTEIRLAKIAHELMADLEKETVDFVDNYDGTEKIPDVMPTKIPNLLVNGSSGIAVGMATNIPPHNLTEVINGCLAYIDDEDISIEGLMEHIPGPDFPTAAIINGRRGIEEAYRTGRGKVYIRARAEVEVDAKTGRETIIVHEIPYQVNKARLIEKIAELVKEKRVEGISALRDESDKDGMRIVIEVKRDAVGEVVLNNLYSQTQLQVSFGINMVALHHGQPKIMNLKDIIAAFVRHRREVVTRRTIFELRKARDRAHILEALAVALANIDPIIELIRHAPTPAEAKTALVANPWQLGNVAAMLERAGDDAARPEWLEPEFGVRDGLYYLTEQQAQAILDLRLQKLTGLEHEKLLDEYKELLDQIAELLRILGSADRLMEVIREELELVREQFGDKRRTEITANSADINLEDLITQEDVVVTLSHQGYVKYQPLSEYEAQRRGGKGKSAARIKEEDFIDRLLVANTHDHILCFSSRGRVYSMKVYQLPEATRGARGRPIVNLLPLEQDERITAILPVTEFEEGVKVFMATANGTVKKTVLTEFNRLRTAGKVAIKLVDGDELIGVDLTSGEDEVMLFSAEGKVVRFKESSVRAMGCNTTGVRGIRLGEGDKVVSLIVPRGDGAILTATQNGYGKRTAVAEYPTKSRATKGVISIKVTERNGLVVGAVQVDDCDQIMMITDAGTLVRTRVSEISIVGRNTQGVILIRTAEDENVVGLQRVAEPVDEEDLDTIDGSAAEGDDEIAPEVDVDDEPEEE
S. aureus GyrB ATPase, sequence (P0A0K8 whole entry): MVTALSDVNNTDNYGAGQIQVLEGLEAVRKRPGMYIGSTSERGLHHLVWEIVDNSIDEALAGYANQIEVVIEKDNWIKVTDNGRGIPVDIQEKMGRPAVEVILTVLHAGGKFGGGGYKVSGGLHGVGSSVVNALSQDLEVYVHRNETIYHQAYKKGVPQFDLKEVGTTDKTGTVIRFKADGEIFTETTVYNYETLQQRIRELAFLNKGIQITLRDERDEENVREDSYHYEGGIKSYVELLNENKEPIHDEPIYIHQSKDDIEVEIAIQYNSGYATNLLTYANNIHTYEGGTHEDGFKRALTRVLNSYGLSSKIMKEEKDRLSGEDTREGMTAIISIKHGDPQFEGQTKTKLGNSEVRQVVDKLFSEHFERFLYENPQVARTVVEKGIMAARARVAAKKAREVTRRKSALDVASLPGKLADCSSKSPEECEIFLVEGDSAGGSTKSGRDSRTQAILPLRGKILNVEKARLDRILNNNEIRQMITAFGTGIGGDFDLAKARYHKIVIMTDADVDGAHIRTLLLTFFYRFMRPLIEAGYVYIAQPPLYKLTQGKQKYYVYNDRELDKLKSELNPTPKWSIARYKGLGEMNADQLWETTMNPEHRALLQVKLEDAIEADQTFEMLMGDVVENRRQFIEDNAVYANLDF

Row | Structure (SMILES) | inhibition at 1 µM
1 | C=CCO[C@H]1CN(c2nc(-c3ncnn3C)c(C(=O)O)s2)CC[C@H]1NC(=O)c1[nH]c(C)c(Cl)c1Cl [Example 1, 2-[(3S,4R)-4-{[(3,4-dichloro-5-methyl-1H-pyrrol-2-yl)carbonyl]amino}-3-(prop-2-en-1-yloxy)piperidin-1-yl]-4-(1-methyl-1H-1,2,4-triazol-5-yl)-1,3-thiazole-5-carboxylic acid] | 99%
2 | C=CCO[C@H]1CN(c2nc(-c3nccn3CCOC)c(C(=O)O)s2)CC[C@H]1NC(=O)c1[nH]c(C)c(Cl)c1Cl [Example 2] | 103%
3 | C=CCO[C@H]1CN(c2nc(-c3cnccn3)c(C(=O)O)s2)CC[C@H]1NC(=O)c1[nH]c(C)c(Cl)c1Cl [Example 4] | 97%
4 | C=CCO[C@H]1CN(c2nc(-c3ncnn3C)c(C(=O)O)s2)CC[C@H]1NC(=O)c1[nH]c(C)c(Cl)c1C#N [Example 5] | 5%
5 | C=CCO[C@H]1CN(c2nc(-c3ncccc3F)c(C(=O)O)s2)CC[C@H]1NC(=O)c1[nH]c(C)c(Cl)c1C#N [Example 6] | 99%
6 | CCO[C@H]1CN(c2nc(-c3ncnn3C)c(C(=O)O)s2)CC[C@H]1NC(=O)c1[nH]c(C)c(Cl)c1Cl [Example 8] | 100%
7 | CCO[C@H]1CN(c2nc(-c3nccn3CCOC)c(C(=O)O)s2)CC[C@H]1NC(=O)c1[nH]c(C)c(Cl)c1Cl [Example 9] | 98%
8 | CCO[C@H]1CN(c2nc(-c3ncccc3F)c(C(=O)O)s2)CC[C@H]1NC(=O)c1[nH]c(C)c(Cl)c1Cl [Example 10] | 90%
9 | CCO[C@H]1CN(c2nc(-c3cnccn3)c(C(=O)O)s2)CC[C@H]1NC(=O)c1[nH]c(C)c(Cl)c1Cl [Example 11] | 101%
10 | CCO[C@H]1CN(c2nc(-c3ncnn3C)c(C(=O)O)s2)CC[C@H]1NC(=O)c1[nH]c(C)c(Cl)c1C#N [Example 12] | 106%
11 | CCO[C@H]1CN(c2nc(-c3ncnn3CCOC)c(C(=O)O)s2)CC[C@H]1NC(=O)c1[nH]c(C)c(Cl)c1C#N [Example 13] | 99%
12 | CCO[C@H]1CN(c2nc(-c3ncccc3F)c(C(=O)O)s2)CC[C@H]1NC(=O)c1[nH]c(C)c(Cl)c1C#N [Example 14] | 91%
13 | CCO[C@H]1CN(c2nc(-c3cnccn3)c(C(=O)O)s2)CC[C@H]1NC(=O)c1[nH]c(C)c(Cl)c1C#N [Example 15] | 98%
14 | CCO[C@H]1CN(c2nc(-c3ncnn3C)c(C(=O)O)s2)CC[C@H]1NC(=O)c1cc(Cl)c(C)[nH]1 [Example 16] | 103%
15 | CCO[C@H]1CN(c2nc(-c3ncccc3F)c(C(=O)O)s2)CC[C@H]1NC(=O)c1cc(Cl)c(C)[nH]1 [Example 17] | 106%
16 | CCO[C@H]1CN(c2nc(-c3cnccn3)c(C(=O)O)s2)CC[C@H]1NC(=O)c1cc(Cl)c(C)[nH]1 [Example 18] | 108%
17 | Cc1[nH]c(C(=O)N[C@@H]2CCN(c3nc(-c4ncnn4C)c(C(=O)O)s3)C[C@@H]2C)cc1Cl [Example 19] | 112%
18 | Cc1[nH]c(C(=O)N[C@@H]2CCN(c3nc(-c4ncccc4F)c(C(=O)O)s3)C[C@@H]2C)cc1Cl [Example 20] | 118%
19 | Cc1[nH]c(C(=O)N[C@@H]2CCN(c3nc(-c4cnccn4)c(C(=O)O)s3)C[C@@H]2C)cc1Cl [Example 21] | 118%
20 | Cc1[nH]c(C(=O)N[C@@H]2CCN(c3nc(-c4ncnn4C)c(C(=O)O)s3)C[C@@H]2C)c(Cl)c1Cl [Example 22] | 112%
21 | Cc1[nH]c(C(=O)N[C@@H]2CCN(c3nc(-c4ncccc4F)c(C(=O)O)s3)C[C@@H]2C)c(Cl)c1Cl [Example 24] | 120%
22 | Cc1[nH]c(C(=O)N[C@@H]2CCN(c3nc(-c4cnccn4)c(C(=O)O)s3)C[C@@H]2C)c(Cl)c1Cl [Example 25] | 119%
23 | Cc1[nH]c(C(=O)N[C@@H]2CCN(c3nc(-c4ncnn4C)c(C(=O)O)s3)C[C@@H]2C)c(C#N)c1Cl [Example 26] | 97%
24 | COCCn1ccnc1-c1nc(N2CC[C@@H](NC(=O)c3[nH]c(C)c(Cl)c3C#N)[C@@H](C)C2)sc1C(=O)O [Example 27] | 102%
